Results from patent US20120135089A1, “E3 LIGASE INHIBITORS” (priority 2009, published 2012).
“Also recorded” adds a separate entry of the source.

Legend:
[1] = system: p53-Ser15 phosphorylation; assay: p53-Ser15 phosphorylation in RKO cells (Western blot); format: cell-based, human; conditions: 6 hours
Method: H1229 cells were transfected with Mdm2-Flag or remained untransfected. Cells were treated with 5 μg/ml (14 μM) MEL23, 5 μg/ml (15 μM) MEL24, 10 μM MG132, or 1 μg/ml of doxorubicin for 6 hours. Cells were lysed and analyzed by Western blotting using anti-Mdm2 and anti-actin antibodies. The lower band indicated with a star seen with the Mdm2 antibody is a non-specific band. NT indicates a no treatment control. […] RKO and RK0-E6 cells were treated with 5 μg/ml (14 μM) MEL23, 5 μg/ml (15 μM) MEL24, 10 μM MG132, 0.5 μg/ml doxorubicin, 0.5 μg/ml camptothecin or 25 μg/ml Etoposide for 6 hours. Cells were lysed and analyzed by Western blotting using anti-Mdm2, anti-p53, and anti-actin antibodies. The lower band indicated with a star seen with the anti-Mdm2 antibody is a non-specific band. […] RKO cells were treated with 5 μg/ml (14 μM) MEL23, 5 μg/ml (15 μM) MEL24, 10 μM MG132 or 2 μg/ml doxorubicin for 6 hours. Cells were lysed and analyzed by Western blotting using anti-Mdm2, anti-p53, anti-phospho-Ser15 p53, and anti-eiF4E antibodies.
Cells were seeded and treated with the indicated compound(s). Cells were lysed after each time point in a buffer of 50 mM TrisHCl pH 7.5, 200 mM NaCl, 0.5% NP-40, and 1 complete mini EDTA-free protease inhibitor cocktail tablet per 10 mL of buffer (Roche, Cat. No. 8360170). Protein content was quantified using a Biorad protein assay reagent (Bio-Rad Laboratories, Hercules, Calif., Cat. No. 500-0006). SDS sample buffer was added to the samples, and the mixture was boiled for 5 minutes. Equal amounts of protein were resolved on a 1D SDS-PAGE gel. Following separation proteins were transferred to nitrocellulose membrane, blocked with 5% milk, and then incubated with primary antibody overnight at 4° C. The membrane was incubated with secondary-HRP antibody for 45 minutes at room temperature and developed with SuperSignal West Pico Substrate (Pierce, Rockford, Ill., Cat. No. 34080).

[2] = target: T1, Flag-Mdm2-HA-MdmX complex (Homo sapiens, UniProt O15151+Q00987); assay: in vitro ubiquitination assay, Flag-Mdm2/HA-MdmX complex; format: biochemical
T1 construct: unlike the full-length complex, which was produced through co-expression of Mdm2 and MdmX in SF9 cells; made in house; host or cells: Sf9 insect cells, co-infection; purified on M2-agarose, then HA-agarose
Method: These assays were performed with 100 ng of full-length Flag-Mdm2 or 200 ng of Flag-Mdm2/HA-MdmX complexes (100 ng of each protein as each are present in a 1:1 ratio, when purified), ^32P-labeled ubiquitin, UbCH5c, and E1. Following a 30-minute incubation at 37° C., reactions were terminated and resolved on a SDS-PAGE gel followed by autoradiography. PC indicates positive control, and NC indicates negative control with UbCH5C eliminated from the reaction. The gels were quantified by phosphoimaging using ImageQuant software (GE Healthcare Bio-Sciences Corp., Piscataway, N.J.). […]
Ubiquitin reactions contain 50 ng E1, 1 μg PK-ubiquitin, 50 ng His-UbCH5C, and 100 ng Flag-Mdm2. […] The products were resolved by SDS-PAGE and analyzed by Western blotting with anti-p53, anti-Mdm2 SMP14, 2A10, 3G5 mix, or anti-MdmX. […] The graph represents the quantification of the Mdm2-ubiquitin species, normalized to the positive control. […]
Full-length Mdm2 in vitro ubiquitination reactions were performed in 15 μl reaction mixtures containing 50 mM TrisHC1 pH 7.5, 5 mM MgCl2, 2 mM NaF, 2 mM ATP, 0.6 mM DTT, 50 ng E1 (Boston Biochem, Cat. No. E-305), 1 μg PK-ubiquitin, 50 ng His-UbCH5C, and 100 ng Flag-Mdm2. […] The products were resolved by SDS-PAGE and analyzed by Western blot with anti-p53, anti-Mdm2 SMP14, 2A10, 3G5 mix, or anti-MdmX antibodies. […]

[3] = system: wild-type, p53−/− and p53−/−; mdm2−/− MEFs; assay: Alamar Blue viability assay, mouse embryonic fibroblasts; format: cell-based; conditions: 48 hours
Method: RKO and RKO-E6 cells were seeded in 384-well plates and treated with a dilution series of MEL23 for 48 hours as indicated. Alamar Blue was added for 16 hours and fluorescence determined on a Victor3 Plate Reader. The median percent inhibition of five replicates was determined and normalized to a no treatment control. One standard deviation is shown. […] Cells were seeded in 384-well plates and treated with a dilution series of MEL23 for 48 hours at the indicated concentrations. Alamar Blue was added for 16 hours and fluorescence determined on a Victor3 Plate Reader. The median percent inhibition of five replicates was determined and normalized to a no treatment control. One standard deviation is shown.
Cells were seeded in 384-well black clear-bottom plates (Corning Inc., Corning, N.Y., Cat. No. 07-200-655). Cells were then treated with the indicated concentration of compound. Plates were incubated for 48 hours at 37° C. Alamar Blue (Invitrogen, Cat. No. DAL1100) was added to each well to a final concentration of 10% and incubated at 37° C. for 16 hours. Fluorescence intensity was determined using the Victor3 Plate Reader (PerkinElmer). Median percent survival or growth inhibition was calculated and normalized to a no treatment control.

T1 sequence (Q00987 whole entry): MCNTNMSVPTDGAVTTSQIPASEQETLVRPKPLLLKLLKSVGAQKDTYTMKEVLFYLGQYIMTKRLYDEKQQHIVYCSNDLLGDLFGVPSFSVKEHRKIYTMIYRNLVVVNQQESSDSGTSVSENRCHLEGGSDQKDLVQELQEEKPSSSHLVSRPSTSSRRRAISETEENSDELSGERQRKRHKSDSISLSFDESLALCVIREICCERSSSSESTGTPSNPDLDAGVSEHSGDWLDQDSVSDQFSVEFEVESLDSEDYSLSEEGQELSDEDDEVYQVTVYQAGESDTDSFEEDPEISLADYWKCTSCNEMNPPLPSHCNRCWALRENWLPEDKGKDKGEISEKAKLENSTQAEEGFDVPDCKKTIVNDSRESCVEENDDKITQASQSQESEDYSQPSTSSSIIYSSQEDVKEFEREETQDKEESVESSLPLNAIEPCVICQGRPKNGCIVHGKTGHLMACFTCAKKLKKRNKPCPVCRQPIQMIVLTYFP
T1 sequence (O15151 whole entry): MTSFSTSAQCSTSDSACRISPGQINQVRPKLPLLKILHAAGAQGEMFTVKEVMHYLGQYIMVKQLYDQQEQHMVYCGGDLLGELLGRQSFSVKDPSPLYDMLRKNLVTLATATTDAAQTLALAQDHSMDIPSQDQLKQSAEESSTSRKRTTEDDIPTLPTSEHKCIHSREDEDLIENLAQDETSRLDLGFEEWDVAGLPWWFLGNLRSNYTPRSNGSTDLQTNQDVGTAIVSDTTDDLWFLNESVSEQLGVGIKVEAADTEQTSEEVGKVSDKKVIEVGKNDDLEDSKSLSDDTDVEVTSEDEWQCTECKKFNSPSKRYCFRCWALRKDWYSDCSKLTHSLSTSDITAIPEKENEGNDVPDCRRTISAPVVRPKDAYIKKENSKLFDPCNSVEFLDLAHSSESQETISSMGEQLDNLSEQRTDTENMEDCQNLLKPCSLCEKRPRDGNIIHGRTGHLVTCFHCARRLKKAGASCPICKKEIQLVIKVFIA

| Structure (SMILES) | phosphorylation of p53 at serine-15 [1] | ligase activity of the Mdm2-MdmX complex in vitro [2] | activity of the Mdm2-MdmX complex toward p53 in vitro ([2]; Western blot) | survival of p53−/− MEFs ([3]; dilution series) | survival of wild-type MEFs ([3]; dilution series) | survival of p53−/− mdm2−/− MEFs ([3]; highest concentration tested) |
| --- | --- | --- | --- | --- | --- | --- |
| CCCCn1c(=O)[nH]c(O)c(C2NCCc3c2[nH]c2ccccc32)c1=O (stereo not shown) [MEL23] | lack of phosphorylation of p53 at serine-15 | significantly decreased the overall ligase activity; also recorded: inhibited | inhibited the activity of the Mdm2-MdmX complex toward p53 | also decreased | survival of the wild-type cells decreased the greatest | Only a small decrease in cell survival |
| Cn1c(O)c(C2NCCc3c2[nH]c2ccccc32)c(=O)n(C)c1=O (stereo not shown) [MEL24] | lack of phosphorylation of p53 at serine-15 | – | – | – | – | – |
